The test system of this experiment is post-synaptic Dopamine (D.A.) receptors. Kind of experiment: Inhibition of apomorphine induced climbing in the mouse. The settings on record: male CDI mice, p.o., 1/2 hour post dosing, apomorphine 1 mg/kg s.c.; for ED50 (dose for 50% inhibition of apomorphine-induced climbing): 30 min; for ED50: Mus musculus, po, 0.5 h, read-out: ED50 (dose for 50% inhibition of apomorphine-induced climbing). In kind it is in vivo. The protocol:
Inhibition of apomorphine induced climbing in the mouse
The test is based on that described by Protais, P., Constantin, J. and Schwartz J. C.
When mice are given a dose of 1 mg/kg apomorphine and then placed in an enclosed environment, such as an inverted wire cage, they are seen to climb around the walls. This behavioural phenomenon is thought to be a consequence of the stimulation of post-synaptic Dopamine (D.A.) receptors in the nucleus accumbens. Inhibition of apomorphine induced climbing is therefore indicative of post-synaptic D.A. receptor blockade in the accumbens.
Groups of 10 male CDI mice, weighing 25-30 g were pretreated orally with either graded doses of the test compound or vehicle, at appropriate time intervals before the subcutaneous administration of a sub-maximal dose of apomorphine (1 mg/kg). Immediately after the apomorphine injection the mice were placed in wire `climbing cages` and each animal was scored for climbing behavour at 10 and 20 minutes post apomorphine as follows:
Four paws on cage floor=0
The total score was calculated for each group of mice and expressed as a percentage inhibition of climbing.
Total score for apomorphine control

Broadly, the ED50 is the midpoint of the dose-response relation.

Take `COc1cc(N)c(Cl)cc1C(=O)NC1CCN2CC(C)(c3ccccc3)CCC12` (racemic) [2 (c), (±) 4-Amino-5-chloro-2-methoxy-N-[7'β-[3'-methyl-3'-phenyl-1'-aza-5'αH-bicyclo[4,3,0]nonyl)]benzamide]: the “ED50 (dose for 50% inhibition of apomorphine-induced climbing)” value was 0.48 mg/kg p.o.

Take `COc1cc(N)c(Cl)cc1C(=O)N[C@H]1CCN2C[C@@H](c3ccccc3)C[C@H]2C1` (relative stereo) [2 (a), (±) 4-Amino-5-chloro-2-methoxy-N-[7'β-(3'β-phenyl-1'-aza-5'αH-bicyclo[4,3,0]nonyl)]benzamide]: the ED50 amounted to 0.235 mg/kg.

In the case of `COc1cc(N)c(Cl)cc1C(=O)N[C@H]1CCN2C[C@@H](c3ccc(F)cc3)C[C@H]2C1` (relative stereo) [2 (b), (±) 4-Amino-5-chloro-2-methoxy-N-[7'β-(3'β-p-fluorophenyl-1'-aza-5'αH-bicyclo[4,3,0]nonyl)]benzamide], the ED50 amounted to 0.195 mg/kg.

Turning to “(±) 4-Amino-5-chloro-2-methoxy-N-(7'β-[3'-o-fluorophenyl-1'-aza-5'αH-bicyclo[4,3,0]nonyl)]benzamide [2 (d)]”, the “ED50 (dose for 50% inhibition of apomorphine-induced climbing)” value is recorded as 0.52 mg/kg p.o.

Values taken from patent US4559346A, “Certain N-octahydro-indolizinebenzamides and their use in treating psychosis, cardiac arrhythmia and hypertension” (Beecham Group p.l.c., priority 1982, dated 1985).
